The values that follow come from patent US11242344B2, “(4-hydroxypyrrolidin-2-yl)-heterocyclic compounds and methods of use thereof” (Genentech, Inc., priority 2017, dated 2022).

Assay [1] relates to MYC expression. The assay can be described thus: Inhibition of MYC expression in MV-4-11 cells. It counts as cell-based. The settings on record: 4 h; for IC50: QuantiGene 2.0, geometric mean; for Maximum Inhibition (%): maximum inhibition of MYC expression. The method, then: Pharmacologic inhibition of MYC is achievable through targeting BET bromodomains through small molecule binder or degrader mechanisms. Such inhibitors may have clinical utility given the widespread pathogenetic role of MYC in cancer. See, e.g., Mertz J, et al., “Targeting MYC dependence in cancer by inhibiting BET bromodomains,” (2011) Proc. Natl. Acad. Sci. USA, Vol. 108 (40), pp. 16669-16674.
To determine the inhibition of MYC expression, MV-4-11 cells (ATCC) were plated at 10,000 cells per well in 96-well plates in RPMI1640 media supplemented with 10% fetal bovine serum and 2 mM L-glutamine. Test compounds diluted in DMSO were transferred to the cell plates, keeping final DMSO concentration consistent at 0.1%, and incubated for 4 h at 37° C. Lysis and analysis for MYC expression were carried out using QuantiGene 2.0 reagents (Affymetrix/eBioscience, probe set cat #SA-50182) and following the vendor's instructions. Luminescence was read using an EnVision plate reader (PerkinElmer) and IC50s generated in Genedata Screener using a 4-parameter non-linear regression fit.
Effective degraders will surpass this and inhibit >95% of MYC, thus following the maximum inhibition within this assay provides valuable SAR. Where more than one measurement was performed for the same assay, the value reported is the geometric mean of all values.

The target in assay [2] is BRD4 (Homo sapiens (Human), UniProt O60885). The assay can be described thus: BRD4 degradation assay in EOL-1 cells, high content fluorescence imaging. The settings on record: 4 hours; for DC50: BRD4 immunofluorescence, read-out: EOL-1 EC50; for EOL-1 Sinf (%): maximum degradation, percent change in protein level (-100% = complete loss). It counts as cell-based. The method, then:
PC3 (Steap-1) prostate cancer cells: PC3 (Steap-1) prostate cancer cells (PC3 cells overexpressing the surface protein Steap-1) were seeded on day 1 at a density of 200,000 cells/mL in 45 μl/well in cell plates in a 384 well Greiner/Perkin Elmer Cell Carrier TC Treated plate (part #6007430) in Assay Medium (RPMI, 10% FBS, 2 mM Glutamax). Cells were incubated overnight at 37° C. degrees. On day 2, compounds were serially diluted 3-fold in DMSO spanning the concentrations 10 mM to 8.6 nM, in 384 well clear polypropylene plates (Greiner Cat #781201). DMSO and 10 mM of a control PROTAC (dBET1, as described in WO 2017/024317, p. 235, structure below) (control compound) were added to designated wells. Compounds and controls were diluted 50-fold (2 μl of DMSO stock into 98 μl) into Assay Medium. 5 μl of the diluted compounds was transferred to the cell plates. The final top concentration of the test compounds in the cell plates was 20 μM. Cell plates were incubated at 37° C., for 4 hours. Fixation and permeabilization were carried out using a Biotek EL406 plate washer and dispenser as follows. Cells were fixed by addition of 15 μL of 16% paraformaldehyde (Electron Microscopy Sciences #15710-S) directly to the 50 μL cell culture medium in each well using the peristaltic pump 5 μL cassette on a Biotek EL406 (final concentration of formaldehyde was 3.7% w/v). Samples were incubated 30 minutes. Well contents were aspirated and 50 μL/well of Phosphate Buffered Saline (PBS) containing 0.5% w/v bovine serum albumen, 0.5% v/v Triton X-100 (Antibody Dilution Buffer) was added to each well. Samples were incubated for 30 minutes. Well contents were aspirated and washed 3 times with 100 μL/well of PBS.
EOL-1 cells: The BRD4 degradation assay was performed on EOL-1 cells using the same procedure as described above for PC3 (Steap-1) prostate cancer cells, except EOL-1 cells were seeded at 1,000,000 cells/mL. Following aspiration and washing of the well contents with 100 μL/well of PBS, 40 μL PBS plus 10% normal goat serum was added per well for 20 minutes at room temperature.
For both the PC3 and EOL-1 cell assays, immunofluorescence staining of BRD4 was carried out using a Biotek EL406 plate washer and dispenser as follows. The well supernatant was aspirated from the wells and 25 μL/well of rabbit mAb Anti-BRD4 [EPR5150(2)] abeam 128874 diluted 1:500 in Antibody Dilution Buffer is dispensed. Samples were incubated for 2 hours at room temperature. Samples were washed 4 times with 100 μL/well of PBS. 25 μL/well of secondary antibody solution (Goat Anti-Rabbit IgG, DyLight 488 Conjugated Highly Cross-adsorbed #35553 1:1000) diluted 1:1000 and Hoechst 33342 1 μg/ml diluted in Antibody Dilution Buffer) were dispensed into each well. 16 wells of the plate, which were designated as ‘no primary antibody” wells, received only Antibody Dilution Buffer (without anti-BRD4 antibody). Samples were incubated for 2 hours at room temperature. Samples were washed 3 times with 100 μL/well of PBS using a Biotek EL406. Quantitative fluorescence imaging of BRD4 was carried out using a Phenix (Perkin Elmer). Fluorescence images of the samples (Channel 1: Hoechst33342 (DNA stain); Channel 2: 488 nm (BRD4 stain)) were acquired. Channel 1 (DNA stain) was used to define the “Region of Interest” (ROI) nuclear region. Measurements of BRD4 average immunofluorescence intensity within the ROI (nuclear region), were made on a per cell basis and averaged over all the measured cells. Data analysis was carried out using Genedata Screener Software, with DMSO and “no primary antibody” samples being used to define the 0% and 100% changes in BRD4. The “Robust Fit” method was used to define the inflexion point of curve (EC50) and the plateau of the maximal effect (Sinf). The Sinf value reports degradation as percent change in protein level, so complete loss of the protein target is −100%. […]

SMILES strings stand for the structures.

By IC50 is commonly meant the concentration that inhibits the measured activity by half.

Turning to `Cc1ncsc1-c1ccc(C2(C)NC(C3C[C@@H](O)CN3C(=O)C(c3cc(OCCN4CC[C@H](NC(=O)c5cc6c(cc5CS(C)(=O)=O)-c5cn(C)c(=O)c7[nH]cc(c57)CN6c5ncc(F)cc5F)C4)no3)C(C)C)=NC2=O)cc1` (single isomer, unassigned) [Example 1002.1], in assay [1], the IC50 is 0.0515 µM and the “Maximum Inhibition (%)” value is recorded as 76.4%. In addition, in assay [2], the DC50 was above 20 µM.
As for `Cc1ncsc1-c1ccc([C@]2(C)NC([C@@H]3C[C@@H](O)CN3C(=O)C(NC(=O)CCCCCCCCCCNC(=O)c3cc4c(cc3CS(C)(=O)=O)-c3cn(C)c(=O)c5[nH]cc(c35)CN4c3ncc(F)cc3F)C(C)(C)C)=NO2)cc1` (single isomer, unassigned) [Example 1006.1], in assay [2], the DC50 was 0.00102 µM and the “EOL-1 Sinf (%)” value was −92.6%.
For the molecule `Cc1ncsc1-c1ccc(C2(C)NC(C3C[C@@H](O)CN3C(=O)C(c3cc(OCCN4CC[C@H](NC(=O)c5cc6c(cc5CS(C)(=O)=O)-c5cn(C)c(=O)c7[nH]cc(c57)CN6c5ncc(F)cc5F)C4)no3)C(C)C)=NC2=O)cc1` (single isomer, unassigned) [Example 1002.2], in assay [1], inhibition was half-maximal at 0.0257 µM (IC50) and the “Maximum Inhibition (%)” value was determined as 90.3%. In addition, in assay [2], the DC50 came out at 0.00031 µM and the “EOL-1 Sinf (%)” value is on record as −65.0%.
